Measured values as given in patent US4328359A, “15-Deoxy-16-substituted-19-chloro-20-nor-prostane derivatives of the E and F series” (American Cyanamid Company, priority 1981, dated 1982).

Key:
Format in all cases: in vivo
[1] = tested on: bronchospasms elicited by intravenous injections of acetylcholine; test: Konzett procedure: bronchodilator activity in Guinea-Pigs, acetylcholine-induced bronchospasm; settings: Cavia porcellus, spasmogen acetylcholine, three logarithmic cumulative intravenous doses
Description: (§1) The bronchodilator activity for representative compounds of this invention was determined in Guinea-Pigs against bronchospasms elicited by intravenous injections of serotonin, histamine, and acetylcholine, by the Konzett procedure, the details of which are those discussed by J. Lulling, P. Lievens, F. El Sayed and J. Prignot, Arzeimittel-Forschung 18, 995 (1968).
(§2) In the table which follows, bronchodilator activity for representative compounds of the invention against spasmogenic agents serotonin, histamine, and acetylcholine is expressed as an ED50 determined from the results obtained with three logarithmic cumulative intravenous doses.

[2] = tested on: bronchospasms elicited by intravenous injections of histamine; test: Konzett procedure: bronchodilator activity in Guinea-Pigs, histamine-induced bronchospasm; settings: Cavia porcellus, spasmogen histamine, three logarithmic cumulative intravenous doses
Description: as §1, §2

[3] = tested on: bronchospasms elicited by intravenous injections of serotonin; test: Konzett procedure: bronchodilator activity in Guinea-Pigs, serotonin-induced bronchospasm; settings: Cavia porcellus, spasmogen serotonin, three logarithmic cumulative intravenous doses
Description: as §1, §2

Structure (SMILES): O=C(O)CCC/C=C\C[C@H]1C(=O)C[C@@H](O)[C@@H]1/C=C/CC(O)CCCCl (relative stereo) [dl 11α,16-dehydroxy-9-oxo-19-chloro-20-nor-5-cis,13-trans prostadienoic acid]
- ED50 [1]: 6.8 µg/kg
- ED50 [2]: 4.4 µg/kg
- ED50 [3]: 4.65 µg/kg
